{"source": "patent US11806351B2", "about": "“Use of coenzyme factor for activation of ATP production in cell” (TERA STONE Co., Ltd, priority 2018, dated 2023)", "key": {"[1]": {"test_system": "intracerebral hemorrhage model rats", "assay": "intracerebral hemorrhage model rats, amount of exercise", "format": "in vivo, Wistar rats", "settings": "100 μg/kg injected into the brain spot one hour after collagenase; hemorrhage day 1 and one week after", "procedure": "Intracerebral hemorrhage model rats were prepared by making a small hole into the skull of adult Wistar rats (weight: from 200 to 230 g) under inhalation anesthesia, administering 1.2 μl of a physiological saline to the right brain striatum in Control group and a physiological saline comprising 0.24 U collagenase (type IV) to that of a hemorrhage group.\nIn order to confirm the brain cell protective action of Specimen 4 for the intracerebral hemorrhage model rats, 100 μg/kg of Specimen 4 was injected into a spot (white lozenge in the drawing) one hour after administration of collagenase, and exercise footprints of the rat were quantitatively measured. (A: Control, B: Hemorrhage group. Pay attention to color change (to black) after hemorrhage).\nFor the measurement of the amount of exercise, the moving image of the rats was photographed for 5 minutes. The free movement (exercise distance and exercise speed) during the latter 3 minutes of the photographing time was analyzed."}, "[2]": {"test_system": "astrocytes, one of glial cells of the central nerve system", "assay": "fluorescence measurement of ATP amount in cultured astrocytes", "format": "cell-based", "settings": "1 μM", "procedure": "Specimen 1 was added to astrocytes, one of glial cells of the central nerve system, after culturing and the fluorescence measurement results are shown in FIG. 2A and FIG. 2B."}, "[3]": {"test_system": "human glioma U251 cells (Sig1-R transfected cells)", "assay": "intracellular ATP concentration in human glioma U251 cells", "format": "cell-based", "settings": "fluorescence measurement 6 hours after administration", "procedure": "To cultured human glioma US251 cells (Sig1-R transfected cells) were added Specimens 1 and 2, respectively and intercomparison was performed between intracellular ATP concentration after addition and that without addition (Cont.). […] It is to be noted that fluorescence measurement was performed 6 hours after the administration of the specimens."}, "hippocampal neurons [4]": {"test_system": "hippocampal neurons", "assay": "mature cultured hippocampal neurons: dendrite branches", "format": "cell-based, ICR mouse", "procedure": "As in Example 4, hippocampal neurons were collected from a juvenile (0 day after birth) ICR mouse brain and the neurons were cultured on a culture dish.\nSpecimen 1 was administered once to the mature cultured hippocampal cells (on culture day 11) and three days later (on culture day 14), the neuron axons and dendrites of the hippocampal neurons (neurons) were observed.\nConcentric circles were drawn at an interval of 10 μm with a soma as a center and the number of dendrites crossing the circles was measured."}, "SIRT1": {"test_system": "SIRT1", "assay": "SIRT1 in treated nematode (preliminary experiment)", "format": "in vivo", "settings": "nematode treated for 24 hours"}, "[5]": {"test_system": "cytoplasmic calcium concentration", "assay": "cytoplasmic calcium concentration in brain slice preparations exposed to 80K ACSF, 24 h after subcutaneous administration", "format": "in vivo, mouse (C57B/6NL)", "procedure": "(§1) Formation of brain slice preparation and measurement of calcium concentration: Used was a whole brain half-cut preparation obtained by cutting a whole brain slice (300 μm) of a mouse (C57B/6NL), pretreated with Specimen 1 for 24 hours by subcutaneous administration, at a median line. […] The resulting preparation was placed in a chamber provided on a stage of an inverted fluorescence microscope (Olympus IX71), covered with a piece of black cotton, fixed with a platinum ring, and refluxed (70 ml/hr) in ACSF aerated with 95% O2 and 5% CO2. A fluorescent image of the preparation was acquired using a 4× objective lens and respective images of the hippocampal ventral part and cerebral cortex temporal region were obtained in one screen. For the measurement of a mitochondrial calcium concentration, a change in intensity of red fluorescence (>600 nm) caused by excitation light at 580 nm was determined and for the measurement of a cytoplasmic calcium concentration, a ratio of fluorescence (>500 nm) between excitation at 360 nm and that at 380 nm was determined. A hippocampal CA1 site and a cerebral cortex were used as two regions of interest (ROI).\n(§2) In water was dissolved β-NMN to give a 10 mg/kg, 30 mg/kg, or 100 mg/kg solution; Specimen 1 was dissolved in an alcohol to give a solution of 1 mg/ml and then the resulting solution was diluted with water to give a 0.01 mg/kg, 0.1 mg/kg or 1.0 mg/kg solution; and they were subcutaneously administered to mice 24 hours before the formation of the preparation (0.1 ml/10 g).\n(§3) In the present test, an operation of exposing the brain preparations formed from mice administered with two drugs having respective concentrations to isotonic 80 mM KCl-ACSF (artificial cerebrospinal fluid) for 5 minutes and then returning them in normal ACSF for 5 minutes was performed three successive times to give a severe calcium load to the preparations. Variations in cytoplasmic and mitochondrial calcium concentrations at that time were measured."}, "[6]": {"test_system": "human-derived neuroblast (Neuroblastoma) SH-SY5Y strain", "assay": "fluorescence measurement of intracellular/extracellular ATP concentration in SH-SY5Y cultured cells", "format": "cell-based", "settings": "for intracellular ATP production (fluorescence intensity): in the cells", "procedure": "After the addition of Specimen 1 to cultured cells of a human-derived neuroblast (Neuroblastoma) SH-SY5Y strain, fluorescence measurement of an intracellular/extracellular ATP concentration was performed."}, "[7]": {"assay": "lipophilicity, hydrophobicity and stability", "format": "physicochemical"}, "hippocampal neurons [8]": {"test_system": "hippocampal neurons", "assay": "cultured hippocampal neurons, initial stage of growth: axons, dendrites, excitatory synapses", "format": "cell-based, ICR mouse", "procedure": "Hippocampal neurons were collected from a juvenile (0 day after birth) ICR mouse brain and neurons were cultured on a culture dish.\nSpecimen 1 was added once to the cells in the initial stage of growth (on culture day 1) and after three days (on culture day 4), the number of neuron axons, dendrites, and growing synapses of the hippocampal neurons (neurons) was quantified. Specimen 1 (0.1 μM, 0.3 μM, 1.0 μM) was added once on culture day 1. Axon and Dendrite were immunostained with a tau antibody and a MAP2 antibody, respectively, three days after the addition (on culture day 4) and morphology thereof was observed.\nAn experiment was performed by drawing concentric circles (not shown) at an interval of 10 μm with a soma as a center and the number of axons crossing the circles was measured.\nThe dendrite was immunostained with a MAP2 antibody on culture day 4 and the number of branches of the dendrite was quantified. An experiment was performed by drawing concentric circles (not shown) at an interval of 10 μm with a soma as a center and the number of dendrites crossing the circles was counted.\nThen, excitatory synapses on culture 14 day were immunostained with a VGLUT1 antibody and the number of synapses was quantified."}, "[9]": {"test_system": "mitochondrial calcium concentration", "assay": "mitochondrial calcium concentration in brain slice preparations exposed to 80K ACSF, 24 h after subcutaneous administration", "format": "in vivo, mouse (C57B/6NL)", "procedure": "as §1, §2, §3\nFIG. 31A to FIG. 32C show the quantification results of the effects of β-NMN and Specimen 1 (TND1128) at each concentration. In FIG. 31A to FIG. 32C, FIG. 31A and FIG. 32A show the results of calculating a mitochondrial calcium concentration, as AUC (Area under the curve), for 35 minutes from 5 minutes after starting of the experiment by administration to three times exposure to 80K-ACSF and 5-minute washing (refer to FIG. 37). FIG. 31B. FIG. 31C, FIG. 32B and FIG. 32C show the drug effects on 5-minute 80K administration and 5-minute subsequent washing (1st: from 5 minutes to 15 minutes, 2nd: from 15 minutes to 25 minutes, and 3rd: from 25 minutes to 35 minutes) in the cerebral cortex (CTX) and the hippocampus (CA1), respectively (refer to FIG. 37). A significant difference test was performed using Tukey's method."}, "[10]": {"settings": "0.3 μM and 1.0 μM, culture day 4"}}}
{"smiles": "Cn1c(=O)nc2n(-c3ccccc3)c3cc(Cl)ccc3cc-2c1=O", "note": "[Specimen 4]", "values": [{"measurement": "exercise distance", "setting": "[1]", "value": "ameliorates an ischemic decrease"}, {"measurement": "exercise speed", "setting": "[1]", "value": "ameliorates an ischemic decrease"}]}
{"smiles": "CCn1c2nc(=O)n(C)c(=O)c-2cc2ccccc21", "note": "[Specimen 1]", "values": [{"measurement": "ATP amount in the glial cells", "setting": "[2]; 12 hours and 24 hours after administration", "value": "significantly increased"}, {"measurement": "extracellular ATP amount", "setting": "[2]; astrocytes", "value": "shows a similar tendency"}, {"measurement": "ATP production amount (intracellular ATP concentration vs without addition)", "setting": "[3]", "value": "significantly increased the ATP production amount"}, {"measurement": "number of dendrites in mature cultured cell", "setting": "hippocampal neurons [4]; 0.3 μM and 1 μM, administered culture day 11, MAP2 antibody culture day 14", "value": "the number of dendrites tends to increase"}, {"measurement": "increase in the number of dendrite branches, mature cells compared with culture day 4", "setting": "hippocampal neurons [4]; administered culture day 11, observed culture day 14", "value": "an increase in the number of branches was not so more marked than that caused by the drug efficacy observed in the cells on culture day 4"}, {"measurement": "SIRT1", "setting": "SIRT1", "value": "significant increase"}, {"measurement": "effect on drastic increase in cytoplasmic Ca2+ concentration caused by 80K-ACSF", "setting": "[5]; s.c. 24 h pretreatment", "value": "no significant effect"}, {"measurement": "quantified cytoplasmic Ca2+ (AUC), significant difference", "setting": "[5]; s.c. 24 h pretreatment, all doses", "value": "a significant difference was not observed"}, {"measurement": "recovery of cytoplasmic calcium concentration variations at each 80K-ACSF administration", "setting": "[5]; β-NMN 30 or 100 mg/kg, Specimen 1 0.01 to 1.0 mg/kg, s.c. 24 h", "value": "show similar recovery"}, {"measurement": "intracellular ATP production (fluorescence intensity)", "setting": "[6]; 1 μM, after 12 hours", "value": "the effect disappears after 12 hours"}, {"measurement": "intracellular ATP production (fluorescence intensity)", "setting": "[6]; 1 μM, immediately after addition", "value": "an increase in ATP production (increase in fluorescence intensity) is observed for 5 hours"}, {"measurement": "extracellular ATP production / ATP concentration", "setting": "[6]; 1 μM, outside the cells", "value": "an increase in ATP production is observed for 5 hours"}, {"measurement": "morphological change of the cultured cells", "setting": "[6]; treatment with the specimen", "value": "no morphological change of the cultured cells"}, {"measurement": "hydrophobicity", "setting": "[7]", "value": "highly hydrophobic"}, {"measurement": "stability", "setting": "[7]; chemical stability", "value": "stable"}, {"measurement": "drug efficacy on axons at 0.3 μM and 1.0 μM", "setting": "hippocampal neurons [8]; [10]", "value": "almost similar maximum drug efficacy"}, {"measurement": "drug efficacy on dendrites at 0.3 μM and 1.0 μM", "setting": "hippocampal neurons [8]; [10]", "value": "almost similar maximum drug efficacy"}, {"measurement": "number of excitatory synapses", "setting": "hippocampal neurons [8]; 0.3 μM, VGLUT1 antibody, culture day 14", "value": "significantly increased the number of excitatory synapses to the maximum"}, {"measurement": "dendrite extension and number of branches", "setting": "hippocampal neurons [8]; 0.1, 0.3, 1.0 μM added once on culture day 1, MAP2 antibody, culture day 4", "value": "concentration-dependently extended the dendrite and increased the number of branches thereof"}, {"measurement": "elongation/growth of neuron axons and number of branches", "setting": "hippocampal neurons [8]; 0.1, 0.3, 1.0 μM added once on culture day 1, tau antibody, culture day 4", "value": "concentration-dependently increases the elongation/growth of neuron axons and the number of branches"}, {"measurement": "physiological response of the preparations under 80K-ACSF stimulation (mitochondrial and cytoplasmic Ca2+ variations)", "setting": "[9]; 100 mg/kg β-NMN, 1 mg/kg Specimen 1", "value": "the preparations can maintain a markedly stable physiological response"}, {"measurement": "mitochondrial protective function / function stabilizing effect", "setting": "[9]; 24 hours after administration", "value": "significant mitochondrial function stabilizing effect"}, {"measurement": "effective amount", "setting": "[9]; s.c. 24 h pretreatment", "value": "≤ 1.0", "unit": "mg/kg"}, {"measurement": "strength of mitochondrial Ca2+ concentration suppressing effect relative to β-NMN, judged from the effective concentration", "setting": "[9]; s.c. 24 h pretreatment", "value": 100, "unit": "times"}, {"measurement": "mitochondrial calcium concentration as AUC, cerebral cortex (CTX) and hippocampus (CA1)", "setting": "[9]; s.c. 24 h pretreatment, within the dose range studied, Tukey's method", "value": "a dose response relationship"}, {"measurement": "mitochondrial Ca2+ increase on three times 80K ACSF exposure (time course)", "setting": "[9]; s.c. 24 h pretreatment, β-NMN 10, 30, 100 mg/kg, Specimen 1 0.01, 0.1, 1.0 mg/kg", "value": "dose-dependently suppress a mitochondrial Ca^2+ increase"}]}
